# Reference: patent US9249129B2, “Morpholino substituted urea derivatives as mTOR inhibitors” (CELLZOME LIMITED, priority 2010, dated 2016)
# pIC50: −log10 of the molar value.
# How the values were obtained:
# Assay in all cases: kinobeads assay with mass spectrometry detection of kinases (kinase selectivity profile)
# Type in all cases: binding
# kinases (kinome) [1] = biological target: T1, kinases (kinome) (Homo sapiens, UniProt O43353); settings: RIPK2 (TKL), IPI00021917
# T1 construct: determined in kinobeads assays with mass spectrometry detection of kinases as described previously; endogenous in cells; host or cells: cell lysate
# From the text: (§1) The protein kinase complement of the human genome (the kinome) was described previously (Manning et al., 2002. Science 298(5600):1912-1934). Sequence accession numbers are defined by the International Protein Index (IPI) (Kersey et al., 2004. Proteomics 4(7):1985-1988).
# kinases (kinome) [2] = biological target: T2, kinases (kinome) (Homo sapiens, UniProt P07948); settings: LYN (TK), IPI00298625
# T2 construct: determined in kinobeads assays with mass spectrometry detection of kinases as described previously; endogenous in cells; host or cells: cell lysate
# From the text: as §1
# kinases (kinome) [3] = biological target: T3, kinases (kinome) (Homo sapiens, UniProt Q9NYL2); settings: ZAK (TKL), IPI00329638
# T3 construct: determined in kinobeads assays with mass spectrometry detection of kinases as described previously; endogenous in cells; host or cells: cell lysate
# From the text: as §1
# kinases (kinome) [4] = biological target: T4, kinases (kinome) (Homo sapiens, UniProt Q96L34); settings: MARK4 (CAMK), IPI00064797
# T4 construct: determined in kinobeads assays with mass spectrometry detection of kinases as described previously; endogenous in cells; host or cells: cell lysate
# T4 sequence (Q96L34 1-752): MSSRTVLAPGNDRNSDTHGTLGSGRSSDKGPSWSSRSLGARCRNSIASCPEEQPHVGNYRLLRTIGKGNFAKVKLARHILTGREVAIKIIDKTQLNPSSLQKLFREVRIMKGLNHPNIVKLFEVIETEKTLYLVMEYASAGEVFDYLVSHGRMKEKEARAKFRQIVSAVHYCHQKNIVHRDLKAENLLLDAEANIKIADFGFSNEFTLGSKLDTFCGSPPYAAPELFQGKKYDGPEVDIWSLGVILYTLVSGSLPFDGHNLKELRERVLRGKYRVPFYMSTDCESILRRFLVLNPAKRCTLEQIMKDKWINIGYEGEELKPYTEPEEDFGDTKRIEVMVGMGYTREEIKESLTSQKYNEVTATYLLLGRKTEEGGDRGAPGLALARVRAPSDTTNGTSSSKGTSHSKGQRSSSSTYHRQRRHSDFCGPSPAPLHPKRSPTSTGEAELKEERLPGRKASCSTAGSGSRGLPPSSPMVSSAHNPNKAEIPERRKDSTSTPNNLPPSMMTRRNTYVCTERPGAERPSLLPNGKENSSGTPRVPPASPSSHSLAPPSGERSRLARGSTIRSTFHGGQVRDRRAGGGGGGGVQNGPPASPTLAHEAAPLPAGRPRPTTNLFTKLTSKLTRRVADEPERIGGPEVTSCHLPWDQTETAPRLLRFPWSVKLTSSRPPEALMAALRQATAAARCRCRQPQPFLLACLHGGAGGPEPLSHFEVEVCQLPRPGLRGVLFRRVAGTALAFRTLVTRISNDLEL
# From the text: as §1
# kinases (kinome) [5] = biological target: T5, kinases (kinome) (Homo sapiens, UniProt Q04759); settings: PKCt (AGC), IPI00029196
# T5 construct: determined in kinobeads assays with mass spectrometry detection of kinases as described previously; endogenous in cells; host or cells: cell lysate
# From the text: as §1
# kinases (kinome) [6] = biological target: T6, kinases (kinome) (Homo sapiens, UniProt Q8IU85); settings: CaMK1d (CAMK), IPI00170508
# T6 construct: determined in kinobeads assays with mass spectrometry detection of kinases as described previously; endogenous in cells; host or cells: cell lysate
# From the text: as §1
# kinases (kinome) [7] = biological target: T7, kinases (kinome) (Homo sapiens, UniProt O00444); settings: PLK4 (Other), IPI00410344
# T7 construct: determined in kinobeads assays with mass spectrometry detection of kinases as described previously; endogenous in cells; host or cells: cell lysate
# T7 sequence (O00444 1-970): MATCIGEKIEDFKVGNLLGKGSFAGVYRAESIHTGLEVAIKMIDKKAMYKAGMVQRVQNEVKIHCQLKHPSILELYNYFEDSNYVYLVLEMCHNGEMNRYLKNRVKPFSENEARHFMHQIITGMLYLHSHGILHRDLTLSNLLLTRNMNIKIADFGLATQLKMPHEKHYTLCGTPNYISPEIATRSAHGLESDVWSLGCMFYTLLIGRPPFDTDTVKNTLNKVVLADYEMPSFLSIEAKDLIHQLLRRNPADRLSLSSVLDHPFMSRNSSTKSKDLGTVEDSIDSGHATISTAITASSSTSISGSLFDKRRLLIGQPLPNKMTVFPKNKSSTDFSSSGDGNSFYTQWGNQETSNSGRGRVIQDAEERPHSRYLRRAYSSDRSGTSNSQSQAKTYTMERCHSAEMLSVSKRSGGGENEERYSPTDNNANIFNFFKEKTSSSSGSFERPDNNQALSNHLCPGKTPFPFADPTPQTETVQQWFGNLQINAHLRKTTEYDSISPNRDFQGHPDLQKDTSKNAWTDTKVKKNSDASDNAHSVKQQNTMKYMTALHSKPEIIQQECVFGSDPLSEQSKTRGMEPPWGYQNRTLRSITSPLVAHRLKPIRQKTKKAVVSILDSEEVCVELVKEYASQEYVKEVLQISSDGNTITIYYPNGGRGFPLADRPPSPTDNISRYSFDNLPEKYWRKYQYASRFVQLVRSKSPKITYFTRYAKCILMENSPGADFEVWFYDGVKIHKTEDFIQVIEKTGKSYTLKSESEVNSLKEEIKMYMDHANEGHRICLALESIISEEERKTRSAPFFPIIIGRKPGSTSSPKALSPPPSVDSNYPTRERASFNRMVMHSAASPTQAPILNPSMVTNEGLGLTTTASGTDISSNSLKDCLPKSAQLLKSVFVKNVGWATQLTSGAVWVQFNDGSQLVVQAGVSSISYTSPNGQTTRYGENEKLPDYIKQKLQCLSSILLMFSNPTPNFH
# From the text: as §1
# kinases (kinome) [8] = biological target: T8, kinases (kinome) (Homo sapiens, UniProt Q08881); settings: ITK (TK), IPI00004566
# T8 construct: determined in kinobeads assays with mass spectrometry detection of kinases as described previously; endogenous in cells; host or cells: cell lysate
# T8 sequence (Q08881 1-620): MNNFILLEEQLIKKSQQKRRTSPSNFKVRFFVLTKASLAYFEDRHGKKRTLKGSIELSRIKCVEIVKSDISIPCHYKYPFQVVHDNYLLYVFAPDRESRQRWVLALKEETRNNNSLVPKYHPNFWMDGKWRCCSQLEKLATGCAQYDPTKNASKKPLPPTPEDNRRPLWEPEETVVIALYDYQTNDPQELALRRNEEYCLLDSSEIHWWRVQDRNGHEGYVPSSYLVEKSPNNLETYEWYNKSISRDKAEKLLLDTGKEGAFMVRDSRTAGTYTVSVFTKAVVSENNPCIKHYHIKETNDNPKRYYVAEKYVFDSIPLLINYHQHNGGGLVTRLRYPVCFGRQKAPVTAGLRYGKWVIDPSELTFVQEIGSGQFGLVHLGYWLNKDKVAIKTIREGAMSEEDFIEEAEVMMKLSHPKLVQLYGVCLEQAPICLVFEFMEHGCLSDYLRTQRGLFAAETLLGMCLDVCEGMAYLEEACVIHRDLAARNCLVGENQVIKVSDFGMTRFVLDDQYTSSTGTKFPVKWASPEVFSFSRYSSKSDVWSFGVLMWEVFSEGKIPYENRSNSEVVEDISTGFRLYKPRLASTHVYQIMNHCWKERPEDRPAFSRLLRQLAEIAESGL
# From the text: as §1
# T3 sequence (Q9NYL2 whole entry): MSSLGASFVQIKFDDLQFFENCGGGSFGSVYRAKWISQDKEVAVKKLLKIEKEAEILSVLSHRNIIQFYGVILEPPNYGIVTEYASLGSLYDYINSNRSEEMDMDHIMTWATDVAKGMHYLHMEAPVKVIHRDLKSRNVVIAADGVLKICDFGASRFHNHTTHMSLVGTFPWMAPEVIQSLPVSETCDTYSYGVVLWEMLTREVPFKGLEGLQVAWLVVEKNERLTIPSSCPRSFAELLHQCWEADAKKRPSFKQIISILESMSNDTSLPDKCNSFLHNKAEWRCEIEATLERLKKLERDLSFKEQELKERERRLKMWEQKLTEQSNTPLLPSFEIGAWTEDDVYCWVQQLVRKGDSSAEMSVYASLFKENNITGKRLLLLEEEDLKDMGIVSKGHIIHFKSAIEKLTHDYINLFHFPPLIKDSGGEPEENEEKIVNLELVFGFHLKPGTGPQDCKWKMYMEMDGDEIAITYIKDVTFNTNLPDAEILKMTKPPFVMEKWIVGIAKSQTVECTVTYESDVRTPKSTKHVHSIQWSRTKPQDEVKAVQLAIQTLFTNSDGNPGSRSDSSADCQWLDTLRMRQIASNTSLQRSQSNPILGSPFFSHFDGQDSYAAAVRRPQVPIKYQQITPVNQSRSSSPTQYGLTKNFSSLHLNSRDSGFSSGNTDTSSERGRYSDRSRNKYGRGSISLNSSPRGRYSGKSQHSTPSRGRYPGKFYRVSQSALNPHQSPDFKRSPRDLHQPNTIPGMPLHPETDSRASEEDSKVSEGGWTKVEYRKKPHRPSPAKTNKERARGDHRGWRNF
# T1 sequence (O43353 whole entry): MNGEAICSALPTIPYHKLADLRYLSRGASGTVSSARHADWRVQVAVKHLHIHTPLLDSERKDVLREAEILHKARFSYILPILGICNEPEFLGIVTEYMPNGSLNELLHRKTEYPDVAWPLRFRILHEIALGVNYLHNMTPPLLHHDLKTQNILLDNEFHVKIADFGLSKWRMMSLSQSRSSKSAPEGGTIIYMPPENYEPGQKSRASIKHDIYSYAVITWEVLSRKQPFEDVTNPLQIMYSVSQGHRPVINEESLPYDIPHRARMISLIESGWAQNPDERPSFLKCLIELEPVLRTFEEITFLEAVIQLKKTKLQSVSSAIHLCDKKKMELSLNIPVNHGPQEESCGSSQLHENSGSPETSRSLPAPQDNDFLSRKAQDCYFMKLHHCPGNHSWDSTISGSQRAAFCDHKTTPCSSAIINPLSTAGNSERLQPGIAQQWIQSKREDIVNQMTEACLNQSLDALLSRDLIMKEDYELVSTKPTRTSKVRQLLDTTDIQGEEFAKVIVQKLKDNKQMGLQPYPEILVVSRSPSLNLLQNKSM
# T6 sequence (Q8IU85 whole entry): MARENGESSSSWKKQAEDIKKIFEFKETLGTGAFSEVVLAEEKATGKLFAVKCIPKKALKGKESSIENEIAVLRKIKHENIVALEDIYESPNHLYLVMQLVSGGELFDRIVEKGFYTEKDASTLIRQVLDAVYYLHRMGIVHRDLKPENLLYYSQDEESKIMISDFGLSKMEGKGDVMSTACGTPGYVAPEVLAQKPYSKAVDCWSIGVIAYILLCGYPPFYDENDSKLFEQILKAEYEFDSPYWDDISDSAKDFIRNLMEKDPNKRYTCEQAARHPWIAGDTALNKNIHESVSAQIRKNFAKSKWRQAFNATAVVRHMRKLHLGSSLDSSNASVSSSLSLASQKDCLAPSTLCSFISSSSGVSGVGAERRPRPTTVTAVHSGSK
# T5 sequence (Q04759 whole entry): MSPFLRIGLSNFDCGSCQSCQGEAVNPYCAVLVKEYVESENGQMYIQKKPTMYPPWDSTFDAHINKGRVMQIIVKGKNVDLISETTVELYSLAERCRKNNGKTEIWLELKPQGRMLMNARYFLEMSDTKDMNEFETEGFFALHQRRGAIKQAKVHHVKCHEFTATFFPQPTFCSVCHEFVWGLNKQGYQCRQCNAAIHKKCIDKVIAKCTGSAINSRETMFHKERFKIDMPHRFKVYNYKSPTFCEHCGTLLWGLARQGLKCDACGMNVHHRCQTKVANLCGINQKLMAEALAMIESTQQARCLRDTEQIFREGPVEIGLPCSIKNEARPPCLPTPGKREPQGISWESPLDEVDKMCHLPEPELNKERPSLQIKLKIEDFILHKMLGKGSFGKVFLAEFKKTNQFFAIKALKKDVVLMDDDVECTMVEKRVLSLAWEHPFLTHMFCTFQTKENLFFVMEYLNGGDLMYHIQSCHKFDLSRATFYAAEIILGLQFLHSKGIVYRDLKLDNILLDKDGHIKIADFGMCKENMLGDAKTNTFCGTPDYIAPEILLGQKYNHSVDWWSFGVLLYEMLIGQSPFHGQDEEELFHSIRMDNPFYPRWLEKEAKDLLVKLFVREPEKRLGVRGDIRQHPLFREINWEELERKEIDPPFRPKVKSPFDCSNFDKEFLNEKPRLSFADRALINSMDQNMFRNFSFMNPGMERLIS
# T2 sequence (P07948 whole entry): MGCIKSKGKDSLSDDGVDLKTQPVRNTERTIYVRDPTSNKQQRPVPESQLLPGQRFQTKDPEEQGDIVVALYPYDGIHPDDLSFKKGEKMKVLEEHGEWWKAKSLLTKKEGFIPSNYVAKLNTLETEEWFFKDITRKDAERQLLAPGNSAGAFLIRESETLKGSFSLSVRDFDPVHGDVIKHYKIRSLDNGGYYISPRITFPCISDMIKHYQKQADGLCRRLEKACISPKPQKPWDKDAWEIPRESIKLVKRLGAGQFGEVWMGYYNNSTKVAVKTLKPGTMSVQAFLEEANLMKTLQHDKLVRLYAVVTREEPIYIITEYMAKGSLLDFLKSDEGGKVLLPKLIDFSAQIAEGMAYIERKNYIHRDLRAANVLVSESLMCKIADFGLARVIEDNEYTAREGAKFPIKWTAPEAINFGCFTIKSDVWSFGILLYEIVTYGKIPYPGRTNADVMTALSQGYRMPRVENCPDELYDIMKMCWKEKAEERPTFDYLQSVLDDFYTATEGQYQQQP
SMILES,pIC50 (kinases (kinome) [1]),pIC50 (kinases (kinome) [2]),pIC50 (kinases (kinome) [3]),pIC50 (kinases (kinome) [4]),pIC50 (kinases (kinome) [5]),pIC50 (kinases (kinome) [6]),pIC50 (kinases (kinome) [7]),pIC50 (kinases (kinome) [8])
"C[C@H]1COCCN1c1nc(-c2ccc(NC(=O)NC3CC3)cc2)cc(-c2cc(F)ccc2S(C)(=O)=O)n1 [Example 40, (S)-1-cyclopropyl-3-(4-(6-(5-fluoro-2-(methylsulfonyl)phenyl)-2-(3-methylmorpholino)pyrimidin-4-yl)phenyl)urea]",< 5.00,< 5.00,< 5.00,< 5.00,< 5.00,< 5.00,< 5.00,< 5.00
"C[C@H]1COCCN1c1nc(-c2ccc(NC(=O)N[C@H]3CCC[C@@H]3O)cc2)cc(-c2cc(F)ccc2S(C)(=O)=O)n1 [Example 76, 1-(4-(6-(5-fluoro-2-(methylsulfonyl)phenyl)-2-((S)-3-methylmorpholino)pyrimidin-4-yl)phenyl)-3-((1S,2S)-2-hydroxycyclopentyl)urea]",< 5.00,< 5.00,< 5.00,< 5.00,< 5.00,< 5.00,< 5.00,< 5.00
"CCNC(=O)Nc1ccc(-c2cc(-c3ccccc3C#N)nc(N3CCOC[C@@H]3C)n2)cc1 [Example 8, (S)-1-(4-(6-(2-cyanophenyl)-2-(3-methylmorpholino)pyrimidin-4-yl)phenyl)-3-ethylurea]",< 5.00,< 5.00,< 5.00,< 5.00,< 5.00,< 5.00,< 5.00,< 5.00

# Further lines, results first:
pIC50 (kinases (kinome) [1]),pIC50 (kinases (kinome) [2]),pIC50 (kinases (kinome) [3]),pIC50 (kinases (kinome) [4]),pIC50 (kinases (kinome) [5]),pIC50 (kinases (kinome) [6]),pIC50 (kinases (kinome) [7]),pIC50 (kinases (kinome) [8]),SMILES
< 5.00,< 5.00,< 5.00,< 5.00,< 5.00,< 5.00,< 5.00,< 5.00,"C[C@H]1COCCN1c1nc(-c2ccc(NC(=O)NC3CC3)cc2)cc(-c2cccnc2S(C)(=O)=O)n1 [Example 46, (S)-1-cyclopropyl-3-(4-(2-(3-methylmorpholino)-6-(2-(methylsulfonyl)pyridin-3-yl)pyrimidin-4-yl)phenyl)urea]"
< 5.00,< 5.00,< 5.00,< 5.00,< 5.00,< 5.00,< 5.00,< 5.00,"C[C@H]1COCCN1c1nc(-c2ccc(NC(=O)NC3CC3)cc2)cc(-c2ccccc2S(C)(=O)=O)n1 [Example 4, (S)-1-cyclopropyl-3-(4-(2-(3-methylmorpholino)-6-(2-(methylsulfonyl)phenyl)pyrimidin-4-yl)phenyl)urea]"
< 5.00,< 5.00,< 5.00,< 5.00,< 5.00,< 5.00,< 5.00,< 5.00,"C[C@H]1COCCN1c1cc(-c2ccccn2)nc(-c2ccc(NC(=O)NCCO)cc2)n1 [Example 43, (S)-1-(2-hydroxyethyl)-3-(4-(4-(3-methylmorpholino)-6-(pyridin-2-yl)pyrimidin-2-yl)phenyl)urea]"
< 5.00,< 5.00,< 5.00,< 5.00,< 5.00,< 5.00,< 5.00,< 5.00,"C[C@H]1COCCN1c1cc(-c2ccccc2S(C)(=O)=O)nc(-c2ccc(NC(=O)NC3CC3)cc2)n1 [Example 6, (S)-1-cyclopropyl-3-(4-(4-(3-methylmorpholino)-6-(2-(methylsulfonyl)phenyl)pyrimidin-2-yl)phenyl)urea]"
